# In US8778951B2, “Heteroaryl compounds and their uses” (Novartis AG, priority 2009, dated 2014):
# Target: Cdk9/cyclinT1 (Homo sapiens (Human), UniProt P50750)
# Experiment: Cdk9/CyclinT1 IMAP Protocol (fluorescence polarization kinase assay)
# Assay type: biochemical
# Conditions: Table 2; generated using one of the two Cdk9/cyclinT1 assays (IMAP or Alpha Screen), not specified which; unit inferred
# Description: Cdk9/CyclinT1 IMAP Protocol
# The biological activity of the compounds of the invention can be determined using the assay described below.
# Cdk9/cyclinT1 is purchased from Millipore, cat #14-685. The final total protein concentration in the assay 4 nM. […] The final concentration of peptide substrate is 100 nM. The ATP substrate (Adenosine-5′-triphosphate) is purchased from Roche Diagnostics, cat#1140965. The final concentration of ATP substrate is 6 uM. IMAP (Immobilized Metal Assay for Phosphochemicals) Progressive Binding reagent is purchased from Molecular Devices, cat#R8139. Fluorescence polarization (FP) is used for detection. The 5TAMRA-cdk7tide peptide is phosphorylated by Cdk9/cyclinT1 kinase using the ATP substrate. The Phospho-5TAMRA-cdk7tide peptide substrate is bound to the IMAP Progressive Binding Reagent. The binding of the IMAP Progressive Binding Reagent changes the fluorescence polarization of the 5TAMRA-cdk7tide peptide which is measured at an excitation of 531 nm and FP emission of 595 nm. Assays are carried out in 100 mM Tris, pH=7.2, mM MgCl2, 0.05% NaN3, 0.01% Tween-20, 1 mM dithiothreitol and 2.5% dimethyl sulfoxide. IMAP Progressive Binding Reagent is diluted 1:800 in 100% 1× Solution A from Molecular Devices, cat#R7285.
# General protocol is as follows: To 10 ul of cdk9/cyclinT1, 0.5 ul of test compound in dimethyl sulfoxide is added. 5TAMRA-cdk7tide and ATP are mixed. 10 ul of the 5TAMRA-cdk7tide/ATP mix is added to start the reaction. The reaction is allowed to proceed for 4.5 hrs. 60 uL of IMAP Progressive Binding Reagent is added. After >1 hr of incubation, plates are read on the Envision 2101 from Perkin-Elmer. The assay is run in a 384-well format using black Corning plates, cat#3573.
# Chain of Cdk9/cyclinT1 (P50750 whole entry): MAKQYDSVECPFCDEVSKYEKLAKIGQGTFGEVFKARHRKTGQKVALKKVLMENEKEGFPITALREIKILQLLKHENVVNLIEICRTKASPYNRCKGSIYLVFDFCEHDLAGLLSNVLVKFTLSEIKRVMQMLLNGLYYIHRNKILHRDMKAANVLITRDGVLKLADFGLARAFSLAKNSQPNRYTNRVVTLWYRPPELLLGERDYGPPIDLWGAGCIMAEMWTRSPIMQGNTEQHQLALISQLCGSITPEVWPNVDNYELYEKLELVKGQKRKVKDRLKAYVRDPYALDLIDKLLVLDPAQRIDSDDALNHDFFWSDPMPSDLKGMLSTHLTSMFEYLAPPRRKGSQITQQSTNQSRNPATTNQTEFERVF
# Chain of Cdk9/cyclinT1 (O60563 whole entry partner): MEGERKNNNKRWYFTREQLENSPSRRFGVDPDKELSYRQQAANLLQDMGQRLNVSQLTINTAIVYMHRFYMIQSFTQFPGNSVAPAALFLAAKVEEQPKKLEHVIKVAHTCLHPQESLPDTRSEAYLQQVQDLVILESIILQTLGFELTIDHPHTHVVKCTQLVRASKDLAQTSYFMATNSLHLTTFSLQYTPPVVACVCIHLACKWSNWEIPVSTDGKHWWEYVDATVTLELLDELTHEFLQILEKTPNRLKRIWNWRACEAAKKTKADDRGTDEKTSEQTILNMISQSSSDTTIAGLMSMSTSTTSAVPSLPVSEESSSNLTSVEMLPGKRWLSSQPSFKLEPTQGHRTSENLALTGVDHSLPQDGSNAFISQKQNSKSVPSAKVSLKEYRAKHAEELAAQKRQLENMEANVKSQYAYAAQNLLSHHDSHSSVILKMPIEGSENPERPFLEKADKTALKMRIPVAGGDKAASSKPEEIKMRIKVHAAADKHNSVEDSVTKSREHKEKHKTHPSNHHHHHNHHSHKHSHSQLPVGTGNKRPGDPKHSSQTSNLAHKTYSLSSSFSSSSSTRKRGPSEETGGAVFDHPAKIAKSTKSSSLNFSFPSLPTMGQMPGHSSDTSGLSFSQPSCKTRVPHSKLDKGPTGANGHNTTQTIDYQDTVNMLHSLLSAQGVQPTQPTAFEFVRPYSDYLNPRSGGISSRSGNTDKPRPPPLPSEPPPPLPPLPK
row,Compound,IC50
1,"Fc1cc(F)cc(CNc2cccc(-c3cc(N[C@H]4CC[C@H](N5CCCC5)CC4)ncc3Cl)n2)c1 [Compound 23, 5′-chloro-N6-(3,5-difluorobenzyl)-N2′-(trans-4-(pyrrolidin-1-yl)cyclohexyl)-2,4′-bipyridine-2′,6-diamine]",7.95 nM
2,N[C@H]1CC[C@H](Nc2cc(-c3cccc(NCC4CCCCC4)n3)c(Cl)cn2)CC1 [Compound 24],12.4 nM
3,N[C@H]1CC[C@H](Nc2cc(-c3cccc(NCc4cc(F)cc(F)c4)n3)c(Cl)cn2)CC1 [Compound 29],7.95 nM
4,N[C@H]1CC[C@H](Nc2cc(-c3cccc(NCc4ccccc4)n3)ccn2)CC1 [Compound 31],44.8 nM
5,N[C@H]1CC[C@H](Nc2cc(-c3cccc(NCc4cccc(F)c4)n3)ccn2)CC1 [Compound 32],15 nM
6,N[C@H]1CC[C@H](Nc2cc(-c3cccc(NCc4ccncc4)n3)ccn2)CC1 [Compound 33],27 nM
7,N[C@H]1CC[C@H](Nc2ncc(Cl)c(-c3cccc(NCc4ccncc4)n3)n2)CC1 [Compound 35],55.8 nM
8,N[C@H]1CC[C@H](Nc2cc(-c3cccc(NCc4cccc(OC(F)F)c4)n3)c(Cl)cn2)CC1 [Compound 36],8.91 nM
9,N[C@H]1CC[C@H](Nc2cc(-c3cccc(NCc4cncc(F)c4)n3)c(Cl)cn2)CC1 [Compound 38],7.95 nM
10,N[C@H]1CC[C@H](Nc2cc(-c3cccc(NCc4cc(F)ccc4F)n3)c(Cl)cn2)CC1 [Compound 39],8.9 nM
11,N[C@H]1CC[C@H](Nc2cc(-c3cccc(NCc4ccccc4F)n3)c(Cl)cn2)CC1 [Compound 41],12.9 nM
12,N[C@H]1CC[C@H](Nc2cc(-c3cccc(NCc4ccccc4Cl)n3)c(Cl)cn2)CC1 [Compound 42],48.1 nM
13,COc1cccc(CNc2cccc(-c3cc(N[C@H]4CC[C@H](N)CC4)ncc3Cl)n2)c1 [Compound 44],11.2 nM
14,N[C@H]1CC[C@H](Nc2cc(-c3cccc(NCc4cccc(Br)c4)n3)c(Cl)cn2)CC1 [Compound 48],7.94 nM
15,N[C@H]1CC[C@H](Nc2cc(-c3cccc(NCc4cccc(O)c4)n3)c(Cl)cn2)CC1 [Compound 49],14.4 nM
16,Cc1ccc(CNc2cccc(-c3cc(N[C@H]4CC[C@H](N)CC4)ncc3Cl)n2)cc1 [Compound 51],17.4 nM
17,N[C@H]1CC[C@H](Nc2cc(-c3cccc(NCc4ccc(Cl)cc4)n3)c(Cl)cn2)CC1 [Compound 55],7.95 nM
18,NC[C@H]1CC[C@H](Nc2cc(-c3cccc(NCC4CCCCC4)n3)c(Cl)cn2)CC1 [Compound 56],39.3 nM
19,NC[C@H]1CC[C@H](Nc2cc(-c3cccc(NCc4ccccc4)n3)c(Cl)cn2)CC1 [Compound 57],32.6 nM
20,NC[C@H]1CC[C@H](Nc2cc(-c3cccc(NCc4cccnc4)n3)c(Cl)cn2)CC1 [Compound 58],31.2 nM
21,NC[C@H]1CC[C@H](Nc2cc(-c3cccc(NCc4cncc(F)c4)n3)c(Cl)cn2)CC1 [Compound 59],9.13 nM
22,NC[C@H]1CC[C@H](Nc2cc(-c3cccc(NCc4ccncc4)n3)c(Cl)cn2)CC1 [Compound 60],7.95 nM

row,Compound,IC50
1,NC[C@H]1CC[C@H](Nc2cc(-c3cccc(NCc4cccc(Cl)c4)n3)c(Cl)cn2)CC1 [Compound 62],7.95 nM
2,CC(C)(C)OC(=O)N1CCC(Nc2cc(-c3cccc(NCc4cccc(F)c4)n3)c(Cl)cn2)CC1 [Compound 67],2550 nM
3,Clc1cnc(NC2CCNCC2)cc1-c1cccc(NCC2CCCCC2)n1 [Compound 68],274 nM
4,Clc1cnc(NC2CCNCC2)cc1-c1cccc(NCc2ccccc2)n1 [Compound 69],154 nM
5,Fc1cc(F)cc(CNc2cccc(-c3cc(NC4CCNCC4)ncc3Cl)n2)c1 [Compound 71],27.4 nM
6,Clc1cccc(CNc2cccc(-c3cc(NC4CCNCC4)ncc3Cl)n2)c1 [Compound 73],35.2 nM
7,N[C@H]1CC[C@H](Nc2cc(-c3cccc(NCC4CCCCCC4)n3)c(Cl)cn2)CC1 [Compound 75],13.5 nM
8,CN(Cc1ccccc1)c1cccc(-c2cc(N[C@H]3CC[C@H](N)CC3)ncc2Cl)n1 [Compound 76],11.1 nM
9,CN(Cc1cccc(F)c1)c1cccc(-c2cc(N[C@H]3CC[C@H](N)CC3)ncc2Cl)n1 [Compound 77],7.95 nM
10,CCS(=O)(=O)NC[C@H]1CC[C@H](Nc2cc(-c3cccc(NCc4cccc(F)c4)n3)c(Cl)cn2)CC1 [Compound 79],7.95 nM
11,CN1CCC[C@H]1C(=O)NC[C@H]1CC[C@H](Nc2cc(-c3cccc(NCc4cccc(F)c4)n3)c(Cl)cn2)CC1 [Compound 83],11.6 nM
12,O=C(NC[C@H]1CC[C@H](Nc2cc(-c3cccc(NCc4cccc(F)c4)n3)c(Cl)cn2)CC1)c1cccnc1 [Compound 84],14.1 nM
13,CN1CCC[C@H]1C(=O)N1CCC(Nc2cc(-c3cccc(NCc4cccc(F)c4)n3)c(Cl)cn2)CC1 [Compound 86],81.5 nM
14,O=C(c1cccnc1)N1CCC(Nc2cc(-c3cccc(NCc4cccc(F)c4)n3)c(Cl)cn2)CC1 [Compound 87],69 nM
15,CCN[C@H]1CC[C@H](Nc2cc(-c3cccc(NCc4cccc(F)c4)n3)c(Cl)cn2)CC1 [Compound 88],11 nM
16,Clc1cnc(N[C@@H]2CCCNC2)cc1-c1cccc(NCC2CCCCC2)n1 [Compound 89],2580 nM
17,Fc1cccc(CNc2cccc(-c3cc(N[C@@H]4CCCNC4)ncc3Cl)n2)c1 [Compound 91],336 nM
18,Fc1cc(F)cc(CNc2cccc(-c3cc(N[C@@H]4CCCNC4)ncc3Cl)n2)c1 [Compound 92],296 nM
19,Clc1cnc(N[C@@H]2CCCNC2)cc1-c1cccc(NCc2ccncc2)n1 [Compound 93],928 nM
20,Fc1ccc(CNc2cccc(-c3cc(N[C@@H]4CCCNC4)ncc3Cl)n2)cc1F [Compound 94],507 nM
21,Clc1cnc(N[C@H]2CCCNC2)cc1-c1cccc(NCC2CCOCC2)n1 [Compound 96],1280 nM
22,Fc1cccc(CNc2cccc(-c3cc(N[C@H]4CCCNC4)ncc3Cl)n2)c1 [Compound 97],339 nM

# Further lines, results first:
row,IC50,Compound
1,8.08 nM,N[C@H]1CC[C@H](Nc2cc(-c3cccc(NCc4ccccc4)n3)c(Cl)cn2)CC1 [Compound 25]
2,16.3 nM,N[C@H]1CC[C@H](Nc2cc(-c3cccc(NCc4cccnc4)n3)c(Cl)cn2)CC1 [Compound 26]
3,48.3 nM,N[C@H]1CC[C@H](Nc2ncc(Cl)c(-c3cccc(NCc4cccc(F)c4)n3)n2)CC1 [Compound 34]
4,7.95 nM,N[C@H]1CC[C@H](Nc2cc(-c3cccc(NCc4cccc(Cl)c4)n3)c(Cl)cn2)CC1 [Compound 37]
5,7.95 nM,N[C@H]1CC[C@H](Nc2cc(-c3cccc(NCc4cccc(C(F)(F)F)c4)n3)c(Cl)cn2)CC1 [Compound 47]
6,19.2 nM,N[C@H]1CC[C@H](Nc2cc(-c3cccc(NCc4ccc(C(F)(F)F)cc4)n3)c(Cl)cn2)CC1 [Compound 52]
7,11.1 nM,N[C@H]1CC[C@H](Nc2cc(-c3cccc(NCc4ccc(OC(F)F)cc4)n3)c(Cl)cn2)CC1 [Compound 53]
8,23.2 nM,N[C@H]1CC[C@H](Nc2cc(-c3cccc(NCc4ccc(OC(F)(F)F)cc4)n3)c(Cl)cn2)CC1 [Compound 54]
9,18.1 nM,NC[C@H]1CC[C@H](Nc2cc(-c3cccc(NCc4cc(F)ccc4F)n3)c(Cl)cn2)CC1 [Compound 61]
10,54.6 nM,NC[C@H]1CC[C@H](Nc2cc(-c3cccc(NCc4cccc(OC(F)F)c4)n3)c(Cl)cn2)CC1 [Compound 64]
11,17.1 nM,NC[C@H]1CC[C@H](Nc2cc(-c3cccc(NCc4ccc(F)cc4)n3)c(Cl)cn2)CC1 [Compound 66]
12,173 nM,Fc1cncc(CNc2cccc(-c3cc(NC4CCNCC4)ncc3Cl)n2)c1 [Compound 70]
13,114 nM,Clc1cnc(NC2CCNCC2)cc1-c1cccc(NCc2ccncc2)n1 [Compound 72]
14,41.6 nM,Fc1ccc(CNc2cccc(-c3cc(NC4CCNCC4)ncc3Cl)n2)cc1F [Compound 74]
15,24.2 nM,CCS(=O)(=O)N[C@H]1CC[C@H](Nc2cc(-c3cccc(NCc4cccc(F)c4)n3)c(Cl)cn2)CC1 [Compound 78]
16,31.7 nM,CN1CCC[C@H]1C(=O)N[C@H]1CC[C@H](Nc2cc(-c3cccc(NCc4cccc(F)c4)n3)c(Cl)cn2)CC1 [Compound 80]
17,54.2 nM,O=C(N[C@H]1CC[C@H](Nc2cc(-c3cccc(NCc4cccc(F)c4)n3)c(Cl)cn2)CC1)c1cccnc1 [Compound 81]
18,9.05 nM,CN(C)CC(=O)NC[C@H]1CC[C@H](Nc2cc(-c3cccc(NCc4cccc(F)c4)n3)c(Cl)cn2)CC1 [Compound 82]
19,68.5 nM,CN(C)CC(=O)N1CCC(Nc2cc(-c3cccc(NCc4cccc(F)c4)n3)c(Cl)cn2)CC1 [Compound 85]
20,2960 nM,Clc1cnc(N[C@@H]2CCCNC2)cc1-c1cccc(NCC2CCOCC2)n1 [Compound 90]
21,1950 nM,Clc1cnc(N[C@H]2CCCNC2)cc1-c1cccc(NCC2CCCCC2)n1 [Compound 95]
22,416 nM,Fc1cc(F)cc(CNc2cccc(-c3cc(N[C@H]4CCCNC4)ncc3Cl)n2)c1 [Compound 98]
